Results as given in US11510908B2, “Protein translation inhibitors and uses thereof” (University of Maryland, Baltimore, priority 2019, dated 2022).

Key:
hnRNP A18 [1] = molecular target: T1, hnRNP A18 (Homo sapiens, UniProt Q14011); test: Cellular Engagement Thermal Shift Assay (CETSA) in LOX-IM-VI cells; format: cell-based; design: expressed in transfected cells; host or cells: LOX-IM-VI human melanoma cells stably transfected with hnRNP A18-GFP; conditions: 3 hours, heat shock at Tagg(75), read-out: EC50, binding and stabilization of hnRNP A18 in cells
T1 sequence (Q14011 1-172): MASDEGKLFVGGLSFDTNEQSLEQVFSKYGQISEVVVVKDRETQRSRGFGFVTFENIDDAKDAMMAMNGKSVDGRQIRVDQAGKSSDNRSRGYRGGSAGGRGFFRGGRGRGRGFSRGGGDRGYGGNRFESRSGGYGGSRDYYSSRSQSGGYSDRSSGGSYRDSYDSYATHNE
Protocol: Cellular Thermal Shift Assay (CETSA)
Cellular thermal shift assay (CETSA) was performed with LOX-IM-VI hnRNP
A18 cells cultured in RPMI medium supplemented with 10% FBS. For an initial determination of the melting profile of hnRNP A18, cells dispensed into 96-well PCR plate in the above medium (5000 cells/well/50 μl), were subjected to temperature gradient (40-60° C.) for 10 min. Cold non-denaturing lysis buffer (PBS supplemented with 0.1% TritonX-100 and 1× protease inhibitors) was added to wells, and the plate was rocked and incubated for 15 min on ice. Subsequently, centrifugation was performed at 14.000 rpm to sediment the unstable protein content. Supernatant was collected, and SDS-PAGE gel was run, and immuno-detection was performed using poly-clonal anti-hnRNP A18 antibody (Sigma, CIRP). hnRNP A18 band was quantified on LI-COR C-Digit Blot Scanner, and subsequently Tagg(50) and Tagg(75) values were calculated for hnRNP A18.
In a subsequent run, cells were treated at various doses (80, 40, 20, 10, 5, 2.5 and 1.25 μM) of Compound 2 (Chembridge 7646184), Compound 4 (OTAVA 219853) and Compound 5 (VITAS STK508411) together with DMSO control, for 3 hours. Cells were then subjected to heat shock at Tagg(75) for 10 min, and unstable protein was removed by centrifugation step. Following an immuno-blotting step, bands of stable hnRNP A18 protein was quantified, normalized to loading control and plotted using GraphPad Prism software. EC50 values of Compound 2, Compound 4 and Compound 5 compounds were calculated.

[2] = tested on: normal human mammary epithelial cells (HMEC); test: Cell viability of normal human mammary epithelial cells (Apo-Tox-Glo); format: cell-based; conditions: 24 hrs; for Effect on normal cells viability: Compounds 2 and 3 at doses as high as 150 μM
Protocol: (§1) Cell Viability and Tumor Growth In Vivo
(§2) Cells viability was measured on normal human mammary epithelial cells (HMEC: ATCC, Gaithersburg, Md.) grown as recommended by the manufacturer and human cancer cells including melanoma LOX-IM-VI, colon cancer RKO, Gliobalstoma D54, pancreatic cancer MiaPaca and triple negative breast cancer MDA-MD-231 cells (5) with the Apo-Tox-Glo kit (Promega, Madison, Wis.) as recommended by the manufacturer. The cells were plated (10,000 cells per well) on a 96 well plate and exposed to increasing concentration of chemical probes for 24 hrs and reacted with the viability reagent as recommended. Fluorescence was measured on a plate reader at 400 nm Ex/505 nm Em.

hnRNP A18 [3] = molecular target: T1, hnRNP A18; test: RNA band shift (EMSA) with His-hnRNP A18 and biotinylated hnRNP A18 RNA motif 1; format: binding; design: recombinant full length His-hnRNP A18 incubated with biotinylated hnRNP A18 RNA motif 1; conditions: increasing concentrations of compound
Protocol: RNA band shifts were performed according to the manufacturer recommendations (LightShift Chemiluminescent RNA EMSA kit, Thermo Scientific, Rockford, Ill.). Briefly recombinant His-hnRNP A18 or His-hnRNP A1 (1 μg) were incubated with biotinylated RNA (hnRNP A18 motif 1, IRE 28 or 51 nucleotides) in 20 μl and run on native polyacrylamide gels transfer to nylon probes and hybridize with streptavidin HRP antibody.

[4] = PAMPA (parallel artificial membrane permeability assay); format: in vitro ADME; conditions: measured at pH 5.0 and 6.8, room temperature, ~4 hours, read-out: Effective permeability Pe
Protocol: The PAMPA assay was performed by Pion (Billerica, Mass.) on 81 compounds selected out of the 264 compounds showing at least 80% similarity to Compound 1, logP<5.0, and 4DBA closer to 0 (>−4.9). The compounds were dissolved at 10 mM in Dimethyl sulfoxide (DMSO, spectrophotometric grade) and filtered (0.2 μm pore size, hyrodophylic PVDF). The assays were carried in the PAMPA STIRWELL plates (lot A0440) and measured at pH 5.0 and 6.8 at room temperature for ˜4 hours on a PAMPA EVOLUTION instrument.

[5] = tested on: melanoma LOX-IM-VI, colon cancer RKO, Glioblastoma D54, pancreatic cancer MiaPaca, MDA-MD-231 cells; test: Cell viability of human cancer cells (Apo-Tox-Glo); format: cell-based; conditions: 24 hrs, increasing concentration
Protocol: as §1, §2

hnRNP A18 [6] = molecular target: T1, hnRNP A18; test: Fluorescence anisotropy competition binding of hnRNP A18 to fluorescein tagged RNA motif 1; design: recombinant full length His-hnRNP A18 incubated with biotinylated hnRNP A18 RNA motif 1; conditions: 25° C., 30 min, read-out: IC50, inhibition of hnRNP A18 binding to its cognate RNA
Protocol: Quantitative assessments of hnRNP A18-RNA binding equilibria were performed using fluorescence anisotropy essentially as described (36). Briefly, binding reactions (100 μl) were assembled as described for RNA band shift (EMSAs) but in absence of glycerol and using fluorescein labeled rather than biotin labeled RNA substrates. Reactions were incubated at 25° C. for 30 min; preliminary kinetics runs verified that equilibrium was attained within this period. Subsequently, total reaction anisotropy (At) and fluorescence intensity were measured using a Beacon 2000 Fluorescence Polarization System (Panvera) equipped with a 490-nm excitation filter and a 535-nm emission filter. Drug-dependent changes in At were analyzed by nonlinear regression using the four parameter logistic equation (Eq.1) and PRISM software (GraphPad).
Here, APR represents the intrinsic anisotropy of the protein:RNA complex in the absence of tested compounds, AR is the anisotropy of the RNA ligand in the absence of protein, [drug] is the concentration of each tested compound, and h is the Hill slope.

[7] = tested on: Iron Responsive Protein (IRP); test: RNA band shift (EMSA) with Iron Responsive Protein and Iron Responsive Element (specificity); format: binding; conditions: very high concentration, decreased specificity
hnRNP A18 RRM = molecular target: T2, hnRNP A18 RRM (Homo sapiens, UniProt Q14011); test: NMR HSQC/TROSY chemical shift perturbation screen; format: binding; conditions: 150 μM hnRNP A18, excess compound, 298 K
T2 construct: A18 RNA recognition motif (residues 1-92 of hnRNP A18 wildtype) was expressed and purified; 6x-His (N, cleaved yes); protein G B1 domain (GB1) (N, cleaved yes); made in house; host or cells: E. coli BLD21(DE3) (so in the source)
Protocol: The hnRNP A18 RRM samples used for compound screening via high field NMR spectroscopy using a series of single-quantum coherence (HSQC) experiments contained 0.1 to 0.2 mM ^15N-labeled hnRNP A18 RRM, ultrapure water, 10% D2O, 5% d6-DMSO and up to 5 mM of each of the forty compounds tested, as based on their solubility. All of the HSQC data were collected at 25° C. with a Bruker Avance 800 US2 NMR spectrometer (800.27 MHz, ^1H) equipped with pulsed-field gradients, four frequency channels, an automatic sample changer, and a TXI cryogenic probe. Backbone resonance assignments in the presence of compounds were achieved via compound titrations and monitoring chemical shift changes until solubility limits were reached (<5 mM compound). Data were processed with NMRPipe (35), and proton chemical shifts and their perturbations upon binding the various compounds were reported with respect to the H2O or HDO signal taken as 4.698 ppm relative to external TSP (0.0 ppm).

[8] = tested on: hnRNP A18 targeted 3'UTR (Trx); test: CAT-Trx 3'UTR reporter assay (CAT ELISA) in LOX-IM VI cells; format: cell-based, human; conditions: increasing amounts of drugs, next day
Protocol: CAT-ELISA was performed as recommended by the manufacturer (Sigma-Aldrich). Briefly, human melanoma LOX-IM VI cells stably transfected with hnRNP A18-GFP (9) were transiently transfected with a CAT reporter vector harboring Trx 3′UTR (16). Twenty-four hours later the cells were distributed in 6 well plates and treated with increasing amounts of drugs. The next day, the cells were washed, and protein extracted. […] Cleavage of the substrate catalyzed by the peroxidase enzyme was measured on a plate reader at 405 nm.
In order to determine whether hnRNP A18 binding to these compounds disrupted its cellular functions, a cell-based assay was developed as a read out for hnRNP A18 RNA binding activity. A reporter vector harboring a hnRNP A18 targeted 3′UTR (Trx; (16)) downstream of a CAT gene was engineered. Binding of hnRNP A18 to the targeted 3′UTR is expected to stabilize the CAT transcript and increase CAT protein production, which is then measured by ELISA.

Aqueous solubility = format: physicochemical

Structure (SMILES)	EC50 (hnRNP A18 [1]) [µM]	Papp [4] [×10⁻⁶ cm/s]	IC50 (hnRNP A18 [6]) [µM]	Concentration at which binding disruption of IRP to Iron Responsive Element was observed [7] [mM]	Aqueous solubility (Aqueous solubility)	Toxicity to normal cells [2]	Disruption of hnRNP A18 RNA binding activity by band shift (hnRNP A18 [3])	Effect on cancer cells viability [5]	Chemical shift perturbations of hnRNP A18 RRM residues (hnRNP A18 RRM)	Production of CAT protein [8]	Effect on normal cells viability [2]
COc1cccc(C(=O)Nc2nc(-c3ccc(C)cc3)c(NC(=O)c3ccco3)s2)c1 [Compound 6]	–	–	–	–	Low aqueous solubility	–	specifically competed for hnRNP A18 binding activity	–	–	could only reduce CAT protein levels at the highest concentration	–
CC(=O)Oc1cccc(C(=O)Nc2ccc(C(=O)Nc3nccs3)cc2)c1 [Compound 3]	–	> 20	13	–	–	–	specifically disrupt hnRNP A18 RNA binding activity	killing all cancer cell lines tested	–	–	without affecting the viability of normal human epithelial cells
COc1ccccc1C(=O)Nc1nc(-c2ccc(C)cc2)c(NC(C)=O)s1 [Compound 4]	2.7	> 20	39	–	–	–	specifically disrupt hnRNP A18 RNA binding activity	preferentially killing cancer cells although less efficiently than Compounds 2 and 3	–	–	no significant effect on normal cells viability
CC(=O)Oc1ccccc1C(=O)Nc1ccccc1Sc1ncnc2scc(-c3ccccc3)c12 [Compound 2]	4.7	> 20	15	–	–	–	specifically disrupt hnRNP A18 RNA binding activity	killing all cancer cell lines tested	–	–	without affecting the viability of normal human epithelial cells

The remaining compounds from weak to strong by IC50 (hnRNP A18 [6]), led by results:

EC50 (hnRNP A18 [1]) [µM]	Papp [4] [×10⁻⁶ cm/s]	IC50 (hnRNP A18 [6]) [µM]	Concentration at which binding disruption of IRP to Iron Responsive Element was observed [7] [mM]	Aqueous solubility (Aqueous solubility)	Structure (SMILES)	Toxicity to normal cells [2]	Disruption of hnRNP A18 RNA binding activity by band shift (hnRNP A18 [3])	Effect on cancer cells viability [5]	Chemical shift perturbations of hnRNP A18 RRM residues (hnRNP A18 RRM)	Production of CAT protein [8]	Effect on normal cells viability [2]
–	–	6.4	5.5	–	Cc1nc(NC(=O)c2ccccc2)sc1-c1csc(Nc2ccc(O)c(C(=O)O)c2)n1 [Compound 1]	–	out-competed hnRNP A18 RNA consensus motif	–	most significant chemical shift perturbations	–	–
23.8	> 20	2.9	–	–	Cc1sc(NC(=O)c2ccccc2)nc1OC(=O)c1ccccc1 [Compound 5]	20-40%	specifically disrupt hnRNP A18 RNA binding activity	least effective	–	–	–
